# According to ChEMBL document CHEMBL3526010, “Pharmacokinetics, biotransformation, and mass balance of edoxaban, a selective, direct factor Xa inhibitor, in humans” (Drug Metab Dispos, 2012):
# How the values were obtained:
# Plasma [1] = test: Cmax in human plasma at 60 mg, po by radio-HPLC chromatogram analysis; type: ADME, organism-based; parameters: dose 60 mg, route oral; conditions: in vivo
# Plasma [2] = test: AUC (0 to t) in human plasma at 60 mg, po by radio-HPLC chromatogram analysis; type: ADME, organism-based; conditions: in vivo
# [3] = AUC (0 to t) in human plasma at 60 mg, po by LC-MS/MS analysis; type: ADME, organism-based
# [4] = Cmax in human plasma at 60 mg, po by LC-MS/MS analysis; type: ADME, organism-based; parameters: dose 60 mg, route oral
# [5] = Elimination half life in human; type: ADME, organism-based; conditions: in vivo, read-out: beta t1/2 (converted)
# [6] = Retention time of the compound; type: physicochemical
# [7] = AUC (0 to infinity) in human plasma at 60 mg, po by LC-MS/MS analysis; type: ADME, organism-based; parameters: dose 60 mg, route oral, time infinity
# Homo sapiens = test: Toxicity in human assessed as sign of adverse effect at 60 mg, po; type: organism-based; conditions: in vivo
# Blood [8] = test: AUC (0 to t) in human whole blood at 60 mg, po by radio-HPLC chromatogram analysis; type: ADME, organism-based; conditions: in vivo
# Plasma [9] = test: AUC (0 to infinity) in human plasma at 60 mg, po by radio-HPLC chromatogram analysis; type: ADME, organism-based; parameters: dose 60 mg, time infinity, route oral; conditions: in vivo
# Blood [10] = test: AUC (0 to infinity) in human whole blood at 60 mg, po by radio-HPLC chromatogram analysis; type: ADME, organism-based; parameters: dose 60 mg, time infinity, route oral; conditions: in vivo
# [11] = Drug metabolism in human assessed as metabolite excretion in feces at 60 mg, po after 168 hrs by radio-HPLC chromatogram analysis; type: ADME, organism-based; conditions: in vivo
# [12] = Tmax in human plasma at 60 mg, po by LC-MS/MS analysis; type: ADME, organism-based
# clinical = conditions: human, in vivo
# [13] = Terminal elimination half life in human plasma at 60 mg, po by LC-MS/MS analysis; type: ADME, organism-based; conditions: read-out: beta t1/2 (converted)
# Blood [14] = test: Cmax in human whole blood at 60 mg, po by radio-HPLC chromatogram analysis; type: ADME, organism-based; parameters: dose 60 mg, route oral; conditions: in vivo
# Plasma [15] = test: AUC (0 to infinity) in human plasma treated with 60 mg, po of [14C]edoxaban by LC-MS/MS analysis; type: ADME, organism-based; parameters: dose 60 mg, time infinity, route oral; conditions: in vivo
# Plasma [16] = test: Tmax in human plasma treated with 60 mg, po of [14C]edoxaban by LC-MS/MS analysis; type: ADME, organism-based; conditions: in vivo
# Plasma [17] = test: Cmax in human plasma treated with 60 mg, po of [14C]edoxaban by LC-MS/MS analysis; type: ADME, organism-based; parameters: dose 60 mg, route oral; conditions: in vivo
# [18] = Drug excretion in urine of human treated with 60 mg, po of [14C]edoxaban after 168 hrs by radio-HPLC chromatogram analysis; type: ADME, organism-based; conditions: in vivo
# [19] = Drug excretion in feces of human treated with 60 mg, po of [14C]edoxaban after 168 hrs by radio-HPLC chromatogram analysis; type: ADME, organism-based; conditions: in vivo
# Plasma [20] = test: Terminal elimination half life in human plasma treated with 60 mg, po of [14C]edoxaban by LC-MS/MS analysis; type: ADME, organism-based
# Plasma [21] = test: AUC (0 to t) in human plasma treated with 60 mg, po of [14C]edoxaban by LC-MS/MS analysis; type: ADME, organism-based; conditions: in vivo
Structure (SMILES),Retention_time [6] [min],AUC (Plasma [15]) [ng·h/mL],Tmax (Plasma [16]) [h],Cmax (Plasma [17]) [ng/mL],Drug excretion [18] [%],beta t1/2 (Plasma [20]) [h],AUCt (Plasma [21]) [ng·h/mL],Drug excretion [19] [%],other results
CN1CCc2nc([14C](=O)N[C@@H]3C[C@@H](C(=O)N(C)C)CC[C@@H]3NC(=O)C(=O)Nc3ccc(Cl)cn3)sc2C1,54.08,–,–,–,–,–,–,–,Cmax (Plasma [1]): 0.349 ugequiv/ml; AUCt (Plasma [2]): 1.683 ugequiv.h/ml; AUC(0-t) [3]: 1580 ng·h/mL; Cmax [4]: 332 ng/mL; half-life [5]: 8 h; AUC(0-inf) [7]: 1600 ng·h/mL; Activity (Homo sapiens): Non-toxic; AUCt (Blood [8]): 1.269 ugequiv.h/ml; AUC (Plasma [9]): 1.947 ugequiv.h/ml; AUC (Blood [10]): 1.673 ugequiv.h/ml; Drug excretion [11]: 0.05%; Tmax [12]: 0.5 h; Tmax (clinical): 1 h; half-life [13]: 7.4 h; Cmax (Blood [14]): 0.352 ugequiv/ml
CN(C)C(=O)[C@H]1CC[C@H](NC(=O)C(=O)Nc2ccc(Cl)cn2)[C@H](NC(=O)c2nc3c(s2)C[N+](C)([O-])CC3)C1 (stereo partly specified),41.45,–,–,–,–,–,–,–,–
CN1CCc2nc(C(=O)N[C@@H]3C[C@@H](C(=O)N(C)C)CC[C@@H]3NC(=O)C(=O)O)sc2C1,25.41,95.8,1.8,14.9,1.85,6.9,94.7,–,Drug excretion ([19]; BLD = below limit of detection): BLD
CN(C)C(=O)[C@H]1CC[C@H](NC(=O)C(=O)Nc2ccc(Cl)cn2)[C@H](NC(=O)c2nc3c(s2)C[N+](C)([C@@H]2O[C@H](C(=O)[O-])[C@@H](O)[C@H](O)[C@H]2O)CC3)C1 (stereo partly specified),38.9,–,–,–,–,–,–,–,–
CN1CCc2nc(C(=O)N[C@@H]3C[C@@H](C(=O)O)CC[C@@H]3NC(=O)C(=O)Nc3ccc(Cl)cn3)sc2C1,40.84,147,1.8,22.2,1.56,8.2,145.5,1.93,–
CN(C)C(=O)[C@H]1CC[C@H](NC(=O)C(=O)Nc2ccc(Cl)cn2)[C@H](NC(=O)c2nc3c(s2)CNCC3)C1,46.52,56.2,1,6.99,0.45,9,55.1,1.66,–
CN1CCc2nc(C(=O)N[C@@H]3C[C@@H](C(=O)N(C)C)CC[C@@H]3N)sc2C1 (stereo in doubt; M2),34.09,–,–,–,–,–,–,–,–
CNC(=O)[C@H]1CC[C@H](NC(=O)C(=O)Nc2ccc(Cl)cn2)[C@H](NC(=O)c2nc3c(s2)CN(C)CC3)C1 (stereo in doubt; M8),49.97,4.41,1.8,0.63,–,9,3.5,0.34,Drug excretion ([18]; BLD = below limit of detection): BLD
